Assay results taken from paper PMC3814616, “BRAF inhibitors suppress apoptosis through off-target inhibition of JNK signaling” (eLife, 2013).
“Also recorded” adds a separate entry of the source.

Experiments:
TAOK2 = biological target: T1, TAOK2 (Homo sapiens, UniProt Q9UL54); set-up: method as in Bollag et al., 2010; conditions: ref Bollag et al., 2010; read-out: Published biochemical IC50; cited from earlier work
T1 construct: purchased KINOMEscan (DiscoveRx), San Diego, CA
T1 sequence (Q9UL54 1-1235): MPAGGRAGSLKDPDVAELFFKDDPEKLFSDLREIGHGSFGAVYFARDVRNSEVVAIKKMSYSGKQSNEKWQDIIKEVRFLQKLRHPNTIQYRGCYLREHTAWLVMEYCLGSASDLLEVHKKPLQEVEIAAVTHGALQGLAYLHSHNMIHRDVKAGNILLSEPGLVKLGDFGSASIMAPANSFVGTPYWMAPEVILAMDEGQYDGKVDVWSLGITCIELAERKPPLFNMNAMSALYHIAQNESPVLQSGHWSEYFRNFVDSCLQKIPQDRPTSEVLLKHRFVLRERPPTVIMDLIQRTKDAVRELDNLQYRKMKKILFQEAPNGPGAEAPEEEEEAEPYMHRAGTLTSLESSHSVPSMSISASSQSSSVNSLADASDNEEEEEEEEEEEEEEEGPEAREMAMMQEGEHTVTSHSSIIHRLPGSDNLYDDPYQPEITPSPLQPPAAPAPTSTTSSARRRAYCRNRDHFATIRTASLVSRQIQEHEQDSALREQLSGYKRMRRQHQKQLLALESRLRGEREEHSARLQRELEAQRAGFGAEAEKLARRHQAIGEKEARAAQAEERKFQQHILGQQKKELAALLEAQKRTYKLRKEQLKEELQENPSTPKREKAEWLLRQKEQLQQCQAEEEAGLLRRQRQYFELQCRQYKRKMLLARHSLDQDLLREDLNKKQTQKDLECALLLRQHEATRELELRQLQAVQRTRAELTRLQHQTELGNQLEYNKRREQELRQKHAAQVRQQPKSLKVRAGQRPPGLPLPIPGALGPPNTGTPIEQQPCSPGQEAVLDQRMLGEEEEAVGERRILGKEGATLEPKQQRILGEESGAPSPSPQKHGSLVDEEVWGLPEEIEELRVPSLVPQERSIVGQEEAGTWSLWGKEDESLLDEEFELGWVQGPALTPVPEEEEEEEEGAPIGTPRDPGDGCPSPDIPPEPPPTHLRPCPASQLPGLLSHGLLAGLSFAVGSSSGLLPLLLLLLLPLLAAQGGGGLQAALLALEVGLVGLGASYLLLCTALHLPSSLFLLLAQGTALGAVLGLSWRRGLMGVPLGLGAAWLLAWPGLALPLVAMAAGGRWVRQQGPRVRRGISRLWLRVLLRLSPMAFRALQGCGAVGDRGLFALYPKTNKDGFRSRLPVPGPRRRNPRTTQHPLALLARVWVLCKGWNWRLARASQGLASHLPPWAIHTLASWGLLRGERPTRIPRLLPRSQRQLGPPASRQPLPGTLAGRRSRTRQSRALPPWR

SRMS = SRMS (Homo sapiens, UniProt Q9H3Y6); set-up: method as in Bollag et al., 2010; conditions: ref Bollag et al., 2010; read-out: Published biochemical IC50; cited from earlier work
SRMS, sequence (Q9H3Y6 whole entry): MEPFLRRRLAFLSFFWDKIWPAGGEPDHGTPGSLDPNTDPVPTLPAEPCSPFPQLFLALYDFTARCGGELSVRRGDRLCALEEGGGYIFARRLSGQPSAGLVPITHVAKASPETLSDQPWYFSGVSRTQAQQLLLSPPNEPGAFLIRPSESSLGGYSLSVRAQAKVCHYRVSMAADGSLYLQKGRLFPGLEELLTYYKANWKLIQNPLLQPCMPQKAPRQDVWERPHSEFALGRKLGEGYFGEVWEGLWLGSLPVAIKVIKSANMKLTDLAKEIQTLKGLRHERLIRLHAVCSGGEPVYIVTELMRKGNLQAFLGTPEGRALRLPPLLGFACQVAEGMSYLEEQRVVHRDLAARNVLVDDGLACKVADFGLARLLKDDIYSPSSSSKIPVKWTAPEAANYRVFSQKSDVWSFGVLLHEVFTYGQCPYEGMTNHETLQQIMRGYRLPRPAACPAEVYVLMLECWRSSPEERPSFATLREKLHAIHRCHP

phospho-JNK = assay: Western blot, UV-induced phospho-JNK in cSCC and HaCaT cell lines; assay type: cell-based, human; conditions: 1 μM, post-radiation
A375 melanoma cell line = conditions: ref Tsai et al., 2008; cited from earlier work
[1] = system: E1A and HRAS^G12V-transformed Craf−/− MEFs; assay: Soft agar colony formation; assay type: cell-based, mouse; conditions: 0.2 μM and 1.0 μM, 4–6 weeks
TAOK1 = biological target: T2, TAOK1 (Homo sapiens, UniProt Q7L7X3); set-up: method as in Tsai et al., 2008; conditions: ref Tsai et al., 2008; read-out: Published biochemical IC50; cited from earlier work
T2 construct: purchased KINOMEscan (DiscoveRx), San Diego, CA
T2 sequence (Q7L7X3 1-1001): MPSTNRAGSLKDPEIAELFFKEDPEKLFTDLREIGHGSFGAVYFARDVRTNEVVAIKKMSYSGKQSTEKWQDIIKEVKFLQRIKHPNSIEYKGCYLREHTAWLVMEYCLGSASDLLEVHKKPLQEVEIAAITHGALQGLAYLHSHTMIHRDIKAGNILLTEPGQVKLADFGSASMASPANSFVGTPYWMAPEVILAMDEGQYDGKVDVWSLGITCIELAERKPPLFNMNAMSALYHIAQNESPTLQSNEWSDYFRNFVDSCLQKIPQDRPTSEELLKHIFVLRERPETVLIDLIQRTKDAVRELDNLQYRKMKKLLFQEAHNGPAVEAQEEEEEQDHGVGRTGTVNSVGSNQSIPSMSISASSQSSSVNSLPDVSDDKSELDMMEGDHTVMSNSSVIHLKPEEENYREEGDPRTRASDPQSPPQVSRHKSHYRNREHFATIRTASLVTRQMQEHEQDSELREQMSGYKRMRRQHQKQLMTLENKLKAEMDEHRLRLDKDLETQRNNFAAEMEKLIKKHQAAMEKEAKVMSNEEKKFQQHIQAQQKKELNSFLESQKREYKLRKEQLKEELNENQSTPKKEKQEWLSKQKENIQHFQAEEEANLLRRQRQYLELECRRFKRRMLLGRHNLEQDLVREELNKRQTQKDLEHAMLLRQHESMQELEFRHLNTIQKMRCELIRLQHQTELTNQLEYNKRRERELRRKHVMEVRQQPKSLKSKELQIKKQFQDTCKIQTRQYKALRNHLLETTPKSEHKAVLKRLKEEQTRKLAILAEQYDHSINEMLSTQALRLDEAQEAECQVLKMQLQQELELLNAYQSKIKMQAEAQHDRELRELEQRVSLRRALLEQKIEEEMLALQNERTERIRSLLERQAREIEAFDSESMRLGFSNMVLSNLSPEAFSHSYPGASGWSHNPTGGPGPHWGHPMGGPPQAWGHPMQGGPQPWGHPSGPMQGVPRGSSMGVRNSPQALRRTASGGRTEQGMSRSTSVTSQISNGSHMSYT

Noxa mRNA = assay: qPCR of epidermis of irradiated mice; conditions: oral gavage 40–80 mg/kg twice a day, 10 kJ/m^2 UVB

Row | SMILES | IC50 (TAOK2) | IC50 (SRMS) | UV-induced phospho-JNK levels (phospho-JNK) | GI50 (A375 melanoma cell line) | colony formation [1] | IC50 (TAOK1) | UV-induced Noxa mRNA expression (Noxa mRNA)
1 | CCCS(=O)(=O)Nc1ccc(F)c(C(=O)c2c[nH]c3ncc(-c4ccc(Cl)cc4)cc23)c1F [vemurafenib] | > 1000 nM | 18 nM | – | – | – | – | –
2 | CCCS(=O)(=O)Nc1ccc(F)c(C(=O)c2c[nH]c3ncc(Cl)cc23)c1F [PLX4720] | – | – | significantly suppressed; also recorded: potently suppresses | 500 nM | significant colony formation advantage | > 5000 nM | significantly dampened
